Measurements reported in patent US12486290B2, “Isoindolinone and indazole compounds for the degradation of EGFR” (C4 THERAPEUTICS, INC., priority 2019, dated 2025).

Assays:
Format in all cases: cell-based
[1] = biological target: T1, EGFR T790M/L858R (NCI-H1975 cells) (Homo sapiens, UniProt P00533, L858R/T790M); assay: EGFR (L858R) degradation analysis, Total EGFR (L858R) HTRF, NCI-H1975 cells; conditions: 6 hours
T1 construct: NCI-H1975 (harboring EGFR heterozygous T790M/L858R mutations); host or cells: NCI-H1975
How it was run: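 Cells (10000/well NCI-H1975 and NCI-H1975+CS, 1000/well NCI-H3255) treated with 11-point half-log titrations from 10 μM top, in duplicate, for 6 hours at 37° C., 5% CO2. Total EGFR (L858R) quantified by HTRF FRET; untreated cells as negative and cell-free wells as positive control.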

[2] = biological target: T2, EGFR T790M/L858R/C797S (NCI-H1975+CS cells) (Homo sapiens, UniProt P00533, C797S/L858R/T790M); assay: EGFR (L858R) degradation analysis, Total EGFR (L858R) HTRF, NCI-H1975+CS cells; conditions: 6 hours, read-out: H1975 C797S clone EGFR DC50
T2 construct: NCI-H1975+CS (harboring EGFR heterozygous T/790M/L858R/C797S mutations) was generated using CRISPR technology; host or cells: NCI-H1975+CS (CRISPR-edited NCI-H1975)
From the text: (§1) NCI-H1975 (harboring EGFR heterozygous T790M/L858R mutations) and NCI-H3255 (harboring EGFR heterozygous L858R mutation) were purchased from ATCC and NCI, respectively. NCI-H1975+CS (harboring EGFR heterozygous T/790M/L858R/C797S mutations) was generated using CRISPR technology to introduce the additional C797S mutation by Horizon Discovery. RPMI 1640 no-phenol red medium and fetal bovine serum (FBS) were purchased from Gibco (Grand Island, NY, USA). Cell culture flasks and 384-well microplates were acquired from VWR (Radnor, PA, USA). Total EGFR (L858R) HTRF assay kits were purchased from Cisbio (Bedford, MA, USA).
(§2) Degradation of EGFR protein containing L858R mutation was determined based on quantification of FRET signal using Total EGFR (L858R) HTRF assay kit. Test compounds were added to the 384-well plate from a top concentration of 10 μM with 11 points, half log titration in duplicates. NCI-H1975, NCI-H1975+CS or NCI-H3255 cells were added into 384-well plates at a cell density of 10000, 10000 or 1000 cells per well, respectively. The plates were kept at 37° C. with 5% CO2 for 6 hours. Cells treated in the absence of the test compound were the negative control. Positive control was set by wells containing all reagents but no cells. FRET signal was acquired on EnVision™ Multilabel Reader (PerkinElmer, Santa Clara, CA, USA).

[3] = biological target: T3, EGFR L858R (NCI-H3255 cells) (Homo sapiens, UniProt P00533, L858R); assay: EGFR (L858R) degradation analysis, Total EGFR (L858R) HTRF, NCI-H3255 cells; conditions: 6 hours
T3 construct: NCI-H3255 (harboring EGFR heterozygous L858R mutation); host or cells: NCI-H3255
From the text: as §1, §2

T3 sequence (P00533 25-1210 L858R): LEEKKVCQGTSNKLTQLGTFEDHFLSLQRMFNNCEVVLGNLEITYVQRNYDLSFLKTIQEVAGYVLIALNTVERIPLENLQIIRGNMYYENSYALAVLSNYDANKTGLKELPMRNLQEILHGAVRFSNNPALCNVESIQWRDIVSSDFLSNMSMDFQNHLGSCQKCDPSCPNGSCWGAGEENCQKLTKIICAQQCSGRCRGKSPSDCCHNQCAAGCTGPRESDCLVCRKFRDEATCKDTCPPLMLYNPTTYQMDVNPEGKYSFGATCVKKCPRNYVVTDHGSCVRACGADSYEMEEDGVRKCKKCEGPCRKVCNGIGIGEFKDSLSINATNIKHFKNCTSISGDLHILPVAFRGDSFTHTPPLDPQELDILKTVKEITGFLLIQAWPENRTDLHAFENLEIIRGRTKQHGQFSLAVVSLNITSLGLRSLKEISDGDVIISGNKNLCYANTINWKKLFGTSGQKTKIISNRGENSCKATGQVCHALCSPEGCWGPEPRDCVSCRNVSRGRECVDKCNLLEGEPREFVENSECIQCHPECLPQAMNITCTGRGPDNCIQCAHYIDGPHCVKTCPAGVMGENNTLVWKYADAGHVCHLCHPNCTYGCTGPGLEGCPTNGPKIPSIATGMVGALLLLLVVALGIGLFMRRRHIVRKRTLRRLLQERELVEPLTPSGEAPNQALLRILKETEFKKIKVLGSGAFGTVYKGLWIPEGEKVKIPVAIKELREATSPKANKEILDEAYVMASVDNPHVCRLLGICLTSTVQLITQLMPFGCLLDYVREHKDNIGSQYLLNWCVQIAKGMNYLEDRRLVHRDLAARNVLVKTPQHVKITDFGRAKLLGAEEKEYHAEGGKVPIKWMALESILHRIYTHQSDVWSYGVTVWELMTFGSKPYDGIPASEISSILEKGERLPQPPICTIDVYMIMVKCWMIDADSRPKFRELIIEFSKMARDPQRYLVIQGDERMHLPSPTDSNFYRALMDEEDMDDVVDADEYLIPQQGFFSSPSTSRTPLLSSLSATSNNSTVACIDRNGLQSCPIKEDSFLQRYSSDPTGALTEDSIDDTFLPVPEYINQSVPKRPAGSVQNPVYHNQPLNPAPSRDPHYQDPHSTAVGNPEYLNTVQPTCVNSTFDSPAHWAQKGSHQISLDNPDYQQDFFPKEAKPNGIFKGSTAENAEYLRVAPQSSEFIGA
T2 sequence (P00533 25-1210 T790M/C797S/L858R): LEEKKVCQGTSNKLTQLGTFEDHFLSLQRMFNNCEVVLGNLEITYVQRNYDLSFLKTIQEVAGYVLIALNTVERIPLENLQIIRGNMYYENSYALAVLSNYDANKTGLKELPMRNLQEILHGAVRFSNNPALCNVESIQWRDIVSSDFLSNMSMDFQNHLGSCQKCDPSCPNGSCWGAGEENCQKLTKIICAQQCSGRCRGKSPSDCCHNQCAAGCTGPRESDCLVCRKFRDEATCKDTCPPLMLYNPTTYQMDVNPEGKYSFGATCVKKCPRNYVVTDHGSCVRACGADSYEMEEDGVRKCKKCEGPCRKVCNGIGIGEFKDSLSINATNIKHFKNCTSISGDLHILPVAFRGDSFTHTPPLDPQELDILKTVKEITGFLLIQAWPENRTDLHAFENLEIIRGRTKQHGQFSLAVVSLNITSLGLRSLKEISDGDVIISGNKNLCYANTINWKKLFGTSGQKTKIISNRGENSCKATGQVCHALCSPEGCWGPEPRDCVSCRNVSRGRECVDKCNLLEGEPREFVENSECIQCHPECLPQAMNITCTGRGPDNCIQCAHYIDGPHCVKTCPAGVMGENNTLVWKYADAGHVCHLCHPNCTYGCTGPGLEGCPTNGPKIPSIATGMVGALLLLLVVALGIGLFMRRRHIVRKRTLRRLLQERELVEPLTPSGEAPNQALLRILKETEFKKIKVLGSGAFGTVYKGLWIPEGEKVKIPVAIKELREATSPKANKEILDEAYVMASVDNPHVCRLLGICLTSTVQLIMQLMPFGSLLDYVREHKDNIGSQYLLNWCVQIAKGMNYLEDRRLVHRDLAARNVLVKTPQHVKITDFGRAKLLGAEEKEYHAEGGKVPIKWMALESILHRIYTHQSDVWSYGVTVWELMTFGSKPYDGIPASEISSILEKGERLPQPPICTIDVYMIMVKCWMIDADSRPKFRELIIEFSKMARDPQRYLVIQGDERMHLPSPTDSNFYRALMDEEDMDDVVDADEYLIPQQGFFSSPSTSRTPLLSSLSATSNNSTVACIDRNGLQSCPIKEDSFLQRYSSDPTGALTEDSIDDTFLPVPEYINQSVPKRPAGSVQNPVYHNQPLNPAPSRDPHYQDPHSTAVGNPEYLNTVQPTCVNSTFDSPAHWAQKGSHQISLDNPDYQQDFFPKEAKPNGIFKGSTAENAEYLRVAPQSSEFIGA
T1 sequence (P00533 25-1210 T790M/L858R): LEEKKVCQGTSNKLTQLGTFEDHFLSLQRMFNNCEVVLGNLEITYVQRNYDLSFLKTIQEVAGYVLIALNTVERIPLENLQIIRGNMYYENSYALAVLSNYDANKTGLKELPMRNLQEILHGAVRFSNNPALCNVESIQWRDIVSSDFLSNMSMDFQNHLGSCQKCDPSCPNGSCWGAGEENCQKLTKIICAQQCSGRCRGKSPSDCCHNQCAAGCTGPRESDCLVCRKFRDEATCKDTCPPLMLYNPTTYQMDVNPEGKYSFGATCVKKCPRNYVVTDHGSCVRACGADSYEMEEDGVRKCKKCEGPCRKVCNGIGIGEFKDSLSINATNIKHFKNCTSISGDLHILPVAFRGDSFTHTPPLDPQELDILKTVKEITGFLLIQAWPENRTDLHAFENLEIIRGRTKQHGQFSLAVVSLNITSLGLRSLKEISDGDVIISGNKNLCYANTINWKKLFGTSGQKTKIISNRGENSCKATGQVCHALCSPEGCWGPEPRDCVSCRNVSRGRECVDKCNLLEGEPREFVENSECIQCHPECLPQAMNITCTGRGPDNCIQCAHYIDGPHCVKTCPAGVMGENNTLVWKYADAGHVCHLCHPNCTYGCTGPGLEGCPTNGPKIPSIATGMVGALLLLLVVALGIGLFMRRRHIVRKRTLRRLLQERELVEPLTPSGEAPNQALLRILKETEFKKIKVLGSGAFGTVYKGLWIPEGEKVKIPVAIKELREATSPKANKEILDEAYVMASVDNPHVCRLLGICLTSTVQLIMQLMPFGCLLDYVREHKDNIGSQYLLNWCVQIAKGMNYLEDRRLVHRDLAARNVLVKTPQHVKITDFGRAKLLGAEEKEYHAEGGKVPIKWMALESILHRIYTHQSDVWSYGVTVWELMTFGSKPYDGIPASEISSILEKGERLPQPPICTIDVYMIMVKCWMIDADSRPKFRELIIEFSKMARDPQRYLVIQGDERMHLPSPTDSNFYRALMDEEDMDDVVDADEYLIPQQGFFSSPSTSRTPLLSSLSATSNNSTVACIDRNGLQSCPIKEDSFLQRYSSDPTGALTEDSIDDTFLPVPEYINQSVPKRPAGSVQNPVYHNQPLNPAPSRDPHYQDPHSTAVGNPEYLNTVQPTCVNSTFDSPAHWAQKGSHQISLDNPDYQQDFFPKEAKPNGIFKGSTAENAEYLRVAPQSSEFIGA

Q: Which DC50 [1] does the source give for `O=C1CCC(Nc2ccc(C3CCN(CC(=O)N4CCC(c5ccc(-c6cc(F)c7c(c6)C(=O)N(C(C(=O)Nc6nccs6)c6ncn8c6CCC8)C7)cc5)CC4)CC3)cc2)C(=O)N1` (stereo not drawn) [Compound 21, 2-(6,7-dihydro-5H-pyrrolo[1,2-c]imidazol-1-yl)-2-(6-(4-(1-(2-(4-(4-((2,6-dioxopiperidin-3-yl)amino)phenyl)piperidin-1-yl)acetyl)piperidin-4-yl)phenyl)-4-fluoro-1-oxoisoindolin-2-yl)-N-(thiazol-2-yl)acetamide] here?
A: 31 nM

Q: And the DC50 [2]?
A: 17 nM

Q: And the DC50 [3]?
A: 11 nM

Q: What does the source list for `O=C1CCC(Nc2ccc(C3CCN(CC(=O)N4CCN(c5ccc(-c6cc(F)c7c(c6)C(=O)N(C(C(=O)Nc6ccccn6)c6ncn8c6CCC8)C7)cc5)CC4)CC3)c(F)c2)C(=O)N1` (stereo not drawn) [Compound 20, 2-(6,7-dihydro-5H-pyrrolo[1,2-c]imidazol-1-yl)-2-[6-[4-[4-[2-[4-[4-[(2,6-dioxo-3-piperidyl)amino]-2-fluoro-phenyl]-1-piperidyl]acetyl]piperazin-1-yl]phenyl]-4-fluoro-1-oxo-isoindolin-2-yl]-N-(2-pyridyl)acetamide]?
A: DC50 [1]: 59 nM; DC50 [2]: 34 nM; DC50 [3]: 25 nM

Q: `O=C1CCC(Nc2ccc(C3CCN(CC(=O)N4CCN(c5ccc(-c6cc(F)c7c(c6)C(=O)N(C(C(=O)Nc6nccs6)c6ncn8c6CCC8)C7)cc5)CC4)CC3)c(C(F)F)c2)C(=O)N1` (stereo not drawn) [Compound 15, 2-[6-[4-[4-[2-[4-[2-(difluoromethyl)-4-[(2,6-dioxo-3-piperidyl)amino]phenyl]-1-piperidyl]acetyl]piperazin-1-yl]phenyl]-4-fluoro-1-oxo-isoindolin-2-yl]-2-(6,7-dihydro-5H-pyrrolo[1,2-c]imidazol-1-yl)-N-thiazol-2-yl-acetamide] was tested. Which DC50 [1] did it give?
A: 34 nM

Q: What about the DC50 [2] of the same compound?
A: 10 nM

Q: What about the DC50 [3] of the same compound?
A: 6 nM

Q: For `Cn1nc(N2CCC(=O)NC2=O)c2ccc(C3CCN(CC(=O)N4CCN(c5ccc(-c6cc(F)c7c(c6)C(=O)N(C(C(=O)Nc6nccs6)c6ncn8c6CCC8)C7)cc5)CC4)CC3)cc21` (stereo not drawn) [Compound 17, 2-(6,7-dihydro-5H-pyrrolo[1,2-c]imidazol-1-yl)-2-(6-(4-(4-(2-(4-(3-(2,4-dioxotetrahydropyrimidin-1(2H)-yl)-1-methyl-1H-indazol-6-yl)piperidin-1-yl)acetyl)piperazin-1-yl)phenyl)-4-fluoro-1-oxoisoindolin-2-yl)-N-(thiazol-2-yl)acetamide], which DC50 [1] is on record?
A: 29 nM

Q: What about the DC50 [2] of the same compound?
A: 22 nM

Q: What about the DC50 [3] of the same compound?
A: 6 nM

Q: What does the source list for `O=C1CC[C@@H](Nc2ccc(C3CCN(CC(=O)N4CCC(Oc5ccc(-c6cc(F)c7c(c6)C(=O)N(C(C(=O)Nc6nccs6)c6ncn8c6CCC8)C7)cc5)CC4)CC3)cc2)C(=O)N1` (stereo partly drawn) [Compound 33, 2-(6,7-dihydro-5H-pyrrolo[1,2-c]imidazol-1-yl)-2-[6-[4-[[1-[2-[4-[4-[[(3R)-2,6-dioxo-3-piperidyl]amino]phenyl]-1-piperidyl]acetyl]-4-piperidyl]oxy]phenyl]-4-fluoro-1-oxo-isoindolin-2-yl]-N-thiazol-2-yl-acetamide]?
A: DC50 [1]: 38 nM; DC50 [2]: 19 nM; DC50 [3]: 8 nM

Q: Which DC50 [1] does the source give for `O=C1CC[C@H](Nc2ccc(C3CCN(CC(=O)N4CCC(Oc5ccc(-c6cc(F)c7c(c6)C(=O)N(C(C(=O)Nc6nccs6)c6ncn8c6CCC8)C7)cc5)CC4)CC3)cc2)C(=O)N1` (stereo partly drawn) [Compound 32, 2-(6,7-dihydro-5H-pyrrolo[1,2-c]imidazol-1-yl)-2-[6-[4-[[1-[2-[4-[4-[[(3S)-2,6-dioxo-3-piperidyl]amino]phenyl]-1-piperidyl]acetyl]-4-piperidyl]oxy]phenyl]-4-fluoro-1-oxo-isoindolin-2-yl]-N-thiazol-2-yl-acetamide] here?
A: 47 nM

Q: And the DC50 [2]?
A: 11 nM

Q: What about the DC50 [3] of the same compound?
A: 12 nM

Q: Which results are given for `O=C1CC[C@H](Nc2ccc(C3CCN(CC(=O)N4CCN(c5ccc(-c6cc(F)c7c(c6)C(=O)N(C(C(=O)Nc6nccs6)c6ncn8c6C[C@@H](F)C8)C7)cc5)CC4)CC3)c(F)c2)C(=O)N1` (stereo partly drawn) [Compound 44, 2-[6-[4-[4-[2-[4-[4-[[(3S)-2,6-dioxo-3-piperidyl]amino]-2-fluoro-phenyl]-1-piperidyl]acetyl]piperazin-1-yl]phenyl]-4-fluoro-1-oxo-isoindolin-2-yl]-2-[(6R)-6-fluoro-6,7-dihydro-5H-pyrrolo[1,2-c]imidazol-1-yl]-N-thiazol-2-yl-acetamide]?
A: DC50 [1]: 22 nM; DC50 [2]: 12 nM; DC50 [3]: 6 nM

Q: `O=C1CCC(Nc2ccc(C3CCN(CC(=O)N4CC5(C4)CN(c4ccc(-c6cc(F)c7c(c6)C(=O)N(C(C(=O)Nc6nccs6)c6ncn8c6CCC8)C7)cc4)C5)CC3)cc2)C(=O)N1` (stereo not drawn) [Compound 47, 2-(6,7-dihydro-5H-pyrrolo[1,2-c]imidazol-1-yl)-2-[6-[4-[2-[2-[4-[4-[(2,6-dioxo-3-piperidyl)amino]phenyl]-1-piperidyl]acetyl]-2,6-diazaspiro[3.3]heptan-6-yl]phenyl]-4-fluoro-1-oxo-isoindolin-2-yl]-N-thiazol-2-yl-acetamide] was tested. Which DC50 [1] did it give?
A: 18 nM

Q: And the DC50 [2]?
A: 9 nM

Q: And the DC50 [3]?
A: 10 nM

Q: With `O=C1CCC(Nc2ccc(C3CCN(CC(=O)N4CCN(c5ccc(-c6cc(F)c7c(c6)C(=O)N(C(C(=O)Nc6nccs6)c6ncn8c6C[C@@H](F)C8)C7)cc5)CC4)CC3)cc2)C(=O)N1` (mixture of isomers) [Compound 43, (2RS)-2-[6-[4-[4-[2-[4-[4-[[(3RS)-2,6-Dioxo-3-piperidyl]amino]phenyl]-1-piperidyl]acetyl]piperazin-1-yl]phenyl]-4-fluoro-1-oxo-isoindolin-2-yl]-2-[(6R)-6-fluoro-6,7-dihydro-5H-pyrrolo[1,2-c]imidazol-1-yl]-N-thiazol-2-yl-acetamide] as the compound, how does the DC50 [1] read?
A: 13 nM

Q: What about the DC50 [2] of the same compound?
A: 18 nM

Q: What about the DC50 [3] of the same compound?
A: 6 nM

Q: What does the source list for `O=C1CC[C@@H](Nc2ccc(C3CCN(CC(=O)N4CCC(c5ccc(-c6cc(F)c7c(c6)C(=O)N(C(C(=O)Nc6nccs6)c6ncn8c6CCC8)C7)cc5)CC4)CC3)c(F)c2)C(=O)N1` (stereo partly drawn) [Compound 24, 2-(6,7-dihydro-5H-pyrrolo[1,2-c]imidazol-1-yl)-2-(6-(4-(1-(2-(4-(4-(((R)-2,6-dioxopiperidin-3-yl)amino)-2-fluorophenyl)piperidin-1-yl)acetyl)piperidin-4-yl)phenyl)-4-fluoro-1-oxoisoindolin-2-yl)-N-(thiazol-2-yl)acetamide]?
A: DC50 [1]: 70 nM; DC50 [2]: 24 nM; DC50 [3]: 6 nM

Q: With `O=C1CC[C@H](Nc2ccc(C3CCN(CC(=O)N4CCN(c5ccc(-c6cc(F)c7c(c6)C(=O)N(C(C(=O)Nc6nccs6)c6ncn8c6CCC8)C7)cc5)CC4)CC3)cc2)C(=O)N1` (stereo partly drawn) [Compound 6, 2-(6,7-dihydro-5H-pyrrolo[1,2-c]imidazol-1-yl)-2-[6-[4-[4-[2-[4-[4-[[(3S)-2,6-dioxo-3-piperidyl]amino]phenyl]-1-piperidyl]acetyl]piperazin-1-yl]phenyl]-4-fluoro-1-oxo-isoindolin-2-yl]-N-thiazol-2-yl-acetamide] as the compound, how does the DC50 [1] read?
A: 22 nM

Q: What about the DC50 [2] of the same compound?
A: 8 nM

Q: And the DC50 [3]?
A: 7 nM

Q: For `N#Cc1cc(NC2CCC(=O)NC2=O)ccc1C1CCN(CC(=O)N2CCC(c3ccc(-c4cc(F)c5c(c4)C(=O)N(C(C(=O)Nc4nccs4)c4ncn6c4CCC6)C5)cc3)CC2)CC1` (stereo not drawn) [Compound 25, 2-(6-(4-(1-(2-(4-(2-cyano-4-((2,6-dioxopiperidin-3-yl)amino)phenyl)piperidin-1-yl)acetyl)piperidin-4-yl)phenyl)-4-fluoro-1-oxoisoindolin-2-yl)-2-(6,7-dihydro-5H-pyrrolo[1,2-c]imidazol-1-yl)-N-(thiazol-2-yl)acetamide], which DC50 [1] is on record?
A: 25 nM

Q: What about the DC50 [2] of the same compound?
A: 17 nM

Q: What about the DC50 [3] of the same compound?
A: 6 nM

Q: What does the source list for `O=C1CC[C@H](Nc2ccc(C3CCN(CC(=O)N4CC5(C4)CN(c4ccc(-c6cc(F)c7c(c6)C(=O)N(C(C(=O)Nc6nccs6)c6ncn8c6CCC8)C7)cc4)C5)CC3)c(F)c2)C(=O)N1` (stereo partly drawn) [Compound 48, 2-(6,7-dihydro-5H-pyrrolo[1,2-c]imidazol-1-yl)-2-[6-[4-[2-[2-[4-[4-[[(3S)-2,6-dioxo-3-piperidyl]amino]-2-fluoro-phenyl]-1-piperidyl]acetyl]-2,6-diazaspiro[3.3]heptan-6-yl]phenyl]-4-fluoro-1-oxo-isoindolin-2-yl]-N-thiazol-2-yl-acetamide]?
A: DC50 [1]: 28 nM; DC50 [2]: 11 nM; DC50 [3]: 7 nM
